Experiment: recombinant UMI read abundance after kanamycin selection (control-corrected) (log10(CPM+1)); higher = more efficient recombination; extreme values may be limits of the assay; sequences stand for … in AGTGCAGAGAAAATCGGCCAGTTTTCTCTGCCTGCAGTCCGCATGCCGTGGGACCCCTTGGGTTCTAACCTGTTGCCTAGATTTATGCAGCGGACTGCCTTTCTCCCAAAGTGATAAACCGG…AGGTTGGTTTCACT; site = the 11-nt donor
Procedure, shortened: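 Two replicates each of selected and unselected plating were used in this pooled Escherichia coli screen of donor and donor-binding-loop pairs for the IS621 bridge recombinase. Selection was with IPTG (0.07 mM) and kanamycin. Counts of recombinant UMIs, amplified across the donor–target junction, were converted to CPM, averaged, scaled by control-derived factors and reported as log10(CPM+1).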
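Also: IS621 bridge recombinase in Escherichia coli cells against a fixed T5 target plasmid.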

Sequence | recombinant UMI read abundance (log10)
CGGCAACCATGGACCGGTTTTCCCGGTAATCCGTATTTGAT (site CGGCAACCTAT) | 0
CGGCAACCATGGACCGGTTTTCCCGGTAATCCGTATTTGAT (site CGGGAACCTAT) | 0
CGGCAACCATGGACCGGTTTTCCCGGTAATCCGTATTTGAT (site CGGTAACCTAT) | 0
CGGCACCCATGGACCGGTTTTCCCGGTAATCCGTATTTGTT (site CGGAATCCTAA) | 0.00519
CGGCACCCATGGACCGGTTTTCCCGGTAATCCGTATTTGTT (site CGGCACCCTAA) | 0.393
CGGCATCCATGGACCGGTTTTCCCGGTAATCCGTATTTGTC (site CGGCATCCTGA) | 0
CGGCATGCATGGACCGGTTTTCCCGGTAATCCGTATTTGTT (site CGGAATCCTAA) | 0.00719
CGGCATGCATGGACCGGTTTTCCCGGTAATCCGTATTTGTT (site CGGCATGCTAA) | 2.31
CGGCCGTCATGGACCGGTTTTCCCGGTAATCCGTATTTGAT (site CGGCCGTCTAT) | 0.968
CGGCGGCCATGGACCGGTTTTCCCGGTAATCCGTATTTGTC (site CGGCGGCCTGA) | 0.965
CGGCTGCCATGGACCGGTTTTCCCGGTAATCCGTATTTGCA (site CGGCTGCCTTG) | 1.18
CGGCTGGCATGGACCGGTTTTCCCGGTAATCCGTATTTGGT (site CGGCTGGCTAC) | 1.17
CGGGAACCATGGACCGGTTTTCCCGGTAATCCGTATTTGAA (site CGGGAACCTAT) | 0
CGGGAACCATGGACCGGTTTTCCCGGTAATCCGTATTTGAA (site CGGGAACCTCT) | 0.00576
CGGGAACCATGGACCGGTTTTCCCGGTAATCCGTATTTGAA (site CGGGAACCTGT) | 0
CGGGAACCATGGACCGGTTTTCCCGGTAATCCGTATTTGAA (site CGGGAACCTTT) | 0
CGGGAGCCATGGACCGGTTTTCCCGGTAATCCGTATTTGCT (site CGGGAGCCTAG) | 0.17
CGGGAGGCATGGACCGGTTTTCCCGGTAATCCGTATTTGCC (site CGGGAGACTGG) | 0
CGGGAGGCATGGACCGGTTTTCCCGGTAATCCGTATTTGCC (site CGGGAGCCTGG) | 0
CGGGAGGCATGGACCGGTTTTCCCGGTAATCCGTATTTGCC (site CGGGAGGCTGG) | 0.183
CGGGAGGCATGGACCGGTTTTCCCGGTAATCCGTATTTGCC (site CGGGAGTCTGG) | 0
CGGGAGTCATGGACCGGTTTTCCCGGTAATCCGTATTTGAC (site CGGGAGTCTGA) | 2.28
CGGGAGTCATGGACCGGTTTTCCCGGTAATCCGTATTTGAC (site CGGGAGTCTGC) | 1.66
CGGGAGTCATGGACCGGTTTTCCCGGTAATCCGTATTTGAC (site CGGGAGTCTGG) | 1.25
CGGGAGTCATGGACCGGTTTTCCCGGTAATCCGTATTTGAC (site CGGGAGTCTGT) | 0.147
CGGGAGTCATGGACCGGTTTTCCCGGTAATCCGTATTTGGT (site CGGGAGTCTAC) | 2.11
CGGGATCCATGGACCGGTTTTCCCGGTAATCCGTATTTGTA (site CGGAATCCTAA) | 0
CGGGATCCATGGACCGGTTTTCCCGGTAATCCGTATTTGTA (site CGGGATCCTTA) | 1.69
CGGGATTCATGGACCGGTTTTCCCGGTAATCCGTATTTGCC (site CGGGAATCTGG) | 0.816

Source: the supplement of paper PMC11208160
